{"source": "patent US20260130395A1", "about": "“Water Dispersible Botanical Compositions” (Aquila Black Limited, priority 2021, published 2026)", "assay": "Stability of cannabinoid compounds and Vitamin E components in Beverage 1 (AB White) by LCMSMS", "assay_type": "physicochemical", "conditions": "for Stability of Plant-Derived Cannabinoid Compounds in AB White, 8° C.: AB White stored at 8° C.; for Stability of Plant-Derived Cannabinoid Compounds in AB White, 21-25° C.: AB White stored at 21-25° C.", "data": [{"smiles": "C=C(C)[C@@H]1CCC(C)=C[C@H]1c1c(O)cc(CCCCC)c(C(=O)O)c1O", "note": "[CBDA, cannabidiolic acid]", "values": [{"measurement": "Stability of Plant-Derived Cannabinoid Compounds in AB White, 8° C.", "setting": "0 days", "result": 1.75, "unit": "µg/mL"}, {"measurement": "Stability of Plant-Derived Cannabinoid Compounds in AB White, 8° C.", "setting": "1 days", "result": 1.72, "unit": "µg/mL"}, {"measurement": "Stability of Plant-Derived Cannabinoid Compounds in AB White, 8° C.", "setting": "2 days", "result": 1.76, "unit": "µg/mL"}, {"measurement": "Stability of Plant-Derived Cannabinoid Compounds in AB White, 8° C.", "setting": "3 days", "result": 1.76, "unit": "µg/mL"}, {"measurement": "Stability of Plant-Derived Cannabinoid Compounds in AB White, 8° C.", "setting": "5 days", "result": 1.71, "unit": "µg/mL"}, {"measurement": "Stability of Plant-Derived Cannabinoid Compounds in AB White, 8° C.", "setting": "8 days", "result": 1.75, "unit": "µg/mL"}, {"measurement": "Stability of Plant-Derived Cannabinoid Compounds in AB White, 8° C.", "setting": "9 days", "result": 1.73, "unit": "µg/mL"}, {"measurement": "Stability of Plant-Derived Cannabinoid Compounds in AB White, 8° C.", "setting": "10 days", "result": 1.76, "unit": "µg/mL"}, {"measurement": "Stability of Plant-Derived Cannabinoid Compounds in AB White, 8° C.", "setting": "11 days", "result": 1.70, "unit": "µg/mL"}, {"measurement": "Stability of Plant-Derived Cannabinoid Compounds in AB White, 8° C.", "setting": "12 days", "result": 1.71, "unit": "µg/mL"}, {"measurement": "Stability of Plant-Derived Cannabinoid Compounds in AB White, 8° C.", "setting": "15 days", "result": 1.74, "unit": "µg/mL"}, {"measurement": "Stability of Plant-Derived Cannabinoid Compounds in AB White, 8° C.", "setting": "16 days", "result": 1.73, "unit": "µg/mL"}, {"measurement": "Stability of Plant-Derived Cannabinoid Compounds in AB White, 8° C.", "setting": "17 days", "result": 1.73, "unit": "µg/mL"}, {"measurement": "Stability of Plant-Derived Cannabinoid Compounds in AB White, 8° C.", "setting": "18 days", "result": 1.76, "unit": "µg/mL"}, {"measurement": "Stability of Plant-Derived Cannabinoid Compounds in AB White, 8° C.", "setting": "19 days", "result": 1.74, "unit": "µg/mL"}, {"measurement": "Stability of Plant-Derived Cannabinoid Compounds in AB White, 8° C.", "setting": "22 days", "result": 1.70, "unit": "µg/mL"}, {"measurement": "Stability of Plant-Derived Cannabinoid Compounds in AB White, 8° C.", "setting": "23 days", "result": 1.76, "unit": "µg/mL"}, {"measurement": "Stability of Plant-Derived Cannabinoid Compounds in AB White, 8° C.", "setting": "24 days", "result": 1.72, "unit": "µg/mL"}, {"measurement": "Stability of Plant-Derived Cannabinoid Compounds in AB White, 8° C.", "setting": "25 days", "result": 1.75, "unit": "µg/mL"}, {"measurement": "Stability of Plant-Derived Cannabinoid Compounds in AB White, 8° C.", "setting": "26 days", "result": 1.75, "unit": "µg/mL"}, {"measurement": "Stability of Plant-Derived Cannabinoid Compounds in AB White, 8° C.", "setting": "29 days", "result": 1.75, "unit": "µg/mL"}, {"measurement": "Stability of Plant-Derived Cannabinoid Compounds in AB White, 8° C.", "setting": "30 days", "result": 1.76, "unit": "µg/mL"}, {"measurement": "Stability of Plant-Derived Cannabinoid Compounds in AB White, 8° C.", "setting": "60 days", "result": 1.70, "unit": "µg/mL"}, {"measurement": "Stability of Plant-Derived Cannabinoid Compounds in AB White, 8° C.", "setting": "90 days", "result": 1.70, "unit": "µg/mL"}, {"measurement": "Stability of Plant-Derived Cannabinoid Compounds in AB White, 8° C.", "setting": "120 days", "result": 1.67, "unit": "µg/mL"}, {"measurement": "Stability of Plant-Derived Cannabinoid Compounds in AB White, 8° C.", "setting": "150 days", "result": 1.71, "unit": "µg/mL"}, {"measurement": "Stability of Plant-Derived Cannabinoid Compounds in AB White, 8° C.", "setting": "180 days", "result": 1.75, "unit": "µg/mL"}, {"measurement": "Stability of Plant-Derived Cannabinoid Compounds in AB White, 8° C.", "setting": "210 days", "result": 1.68, "unit": "µg/mL"}, {"measurement": "Stability of Plant-Derived Cannabinoid Compounds in AB White, 8° C.", "setting": "240 days", "result": 1.70, "unit": "µg/mL"}, {"measurement": "Stability of Plant-Derived Cannabinoid Compounds in AB White, 8° C.", "setting": "270 days", "result": 1.70, "unit": "µg/mL"}, {"measurement": "Stability of Plant-Derived Cannabinoid Compounds in AB White, 8° C.", "setting": "300 days", "result": 1.69, "unit": "µg/mL"}, {"measurement": "Stability of Plant-Derived Cannabinoid Compounds in AB White, 8° C.", "setting": "330 days", "result": 1.70, "unit": "µg/mL"}, {"measurement": "Stability of Plant-Derived Cannabinoid Compounds in AB White, 8° C.", "setting": "360 days", "result": 1.70, "unit": "µg/mL"}, {"measurement": "Stability of Plant-Derived Cannabinoid Compounds in AB White, 8° C.", "setting": "390 days", "result": 1.70, "unit": "µg/mL"}, {"measurement": "Stability of Plant-Derived Cannabinoid Compounds in AB White, 8° C.", "setting": "420 days", "result": 1.67, "unit": "µg/mL"}, {"measurement": "Stability of Plant-Derived Cannabinoid Compounds in AB White, 8° C.", "setting": "450 days", "result": 1.68, "unit": "µg/mL"}, {"measurement": "Stability of Plant-Derived Cannabinoid Compounds in AB White, 8° C.", "setting": "480 days", "result": 1.66, "unit": "µg/mL"}, {"measurement": "Stability of Plant-Derived Cannabinoid Compounds in AB White, 8° C.", "setting": "510 days", "result": 1.61, "unit": "µg/mL"}, {"measurement": "Stability of Plant-Derived Cannabinoid Compounds in AB White, 8° C.", "setting": "540 days", "result": 1.61, "unit": "µg/mL"}, {"measurement": "Stability of Plant-Derived Cannabinoid Compounds in AB White, 8° C.", "setting": "570 days", "result": 1.60, "unit": "µg/mL"}, {"measurement": "Stability of Plant-Derived Cannabinoid Compounds in AB White, 21-25° C.", "setting": "0 days", "result": 1.75, "unit": "µg/mL"}, {"measurement": "Stability of Plant-Derived Cannabinoid Compounds in AB White, 21-25° C.", "setting": "1 days", "result": 1.76, "unit": "µg/mL"}, {"measurement": "Stability of Plant-Derived Cannabinoid Compounds in AB White, 21-25° C.", "setting": "2 days", "result": 1.70, "unit": "µg/mL"}, {"measurement": "Stability of Plant-Derived Cannabinoid Compounds in AB White, 21-25° C.", "setting": "3 days", "result": 1.71, "unit": "µg/mL"}, {"measurement": "Stability of Plant-Derived Cannabinoid Compounds in AB White, 21-25° C.", "setting": "5 days", "result": 1.69, "unit": "µg/mL"}, {"measurement": "Stability of Plant-Derived Cannabinoid Compounds in AB White, 21-25° C.", "setting": "8 days", "result": 1.77, "unit": "µg/mL"}, {"measurement": "Stability of Plant-Derived Cannabinoid Compounds in AB White, 21-25° C.", "setting": "9 days", "result": 1.74, "unit": "µg/mL"}, {"measurement": "Stability of Plant-Derived Cannabinoid Compounds in AB White, 21-25° C.", "setting": "10 days", "result": 1.73, "unit": "µg/mL"}, {"measurement": "Stability of Plant-Derived Cannabinoid Compounds in AB White, 21-25° C.", "setting": "11 days", "result": 1.76, "unit": "µg/mL"}, {"measurement": "Stability of Plant-Derived Cannabinoid Compounds in AB White, 21-25° C.", "setting": "12 days", "result": 1.74, "unit": "µg/mL"}, {"measurement": "Stability of Plant-Derived Cannabinoid Compounds in AB White, 21-25° C.", "setting": "15 days", "result": 1.69, "unit": "µg/mL"}, {"measurement": "Stability of Plant-Derived Cannabinoid Compounds in AB White, 21-25° C.", "setting": "16 days", "result": 1.75, "unit": "µg/mL"}, {"measurement": "Stability of Plant-Derived Cannabinoid Compounds in AB White, 21-25° C.", "setting": "17 days", "result": 1.72, "unit": "µg/mL"}, {"measurement": "Stability of Plant-Derived Cannabinoid Compounds in AB White, 21-25° C.", "setting": "18 days", "result": 1.75, "unit": "µg/mL"}, {"measurement": "Stability of Plant-Derived Cannabinoid Compounds in AB White, 21-25° C.", "setting": "19 days", "result": 1.70, "unit": "µg/mL"}, {"measurement": "Stability of Plant-Derived Cannabinoid Compounds in AB White, 21-25° C.", "setting": "22 days", "result": 1.70, "unit": "µg/mL"}, {"measurement": "Stability of Plant-Derived Cannabinoid Compounds in AB White, 21-25° C.", "setting": "23 days", "result": 1.73, "unit": "µg/mL"}, {"measurement": "Stability of Plant-Derived Cannabinoid Compounds in AB White, 21-25° C.", "setting": "24 days", "result": 1.70, "unit": "µg/mL"}, {"measurement": "Stability of Plant-Derived Cannabinoid Compounds in AB White, 21-25° C.", "setting": "25 days", "result": 1.73, "unit": "µg/mL"}, {"measurement": "Stability of Plant-Derived Cannabinoid Compounds in AB White, 21-25° C.", "setting": "26 days", "result": 1.75, "unit": "µg/mL"}, {"measurement": "Stability of Plant-Derived Cannabinoid Compounds in AB White, 21-25° C.", "setting": "29 days", "result": 1.76, "unit": "µg/mL"}, {"measurement": "Stability of Plant-Derived Cannabinoid Compounds in AB White, 21-25° C.", "setting": "30 days", "result": 1.71, "unit": "µg/mL"}, {"measurement": "Stability of Plant-Derived Cannabinoid Compounds in AB White, 21-25° C.", "setting": "60 days", "result": 1.68, "unit": "µg/mL"}, {"measurement": "Stability of Plant-Derived Cannabinoid Compounds in AB White, 21-25° C.", "setting": "90 days", "result": 1.67, "unit": "µg/mL"}, {"measurement": "Stability of Plant-Derived Cannabinoid Compounds in AB White, 21-25° C.", "setting": "120 days", "result": 1.66, "unit": "µg/mL"}, {"measurement": "Stability of Plant-Derived Cannabinoid Compounds in AB White, 21-25° C.", "setting": "150 days", "result": 1.64, "unit": "µg/mL"}, {"measurement": "Stability of Plant-Derived Cannabinoid Compounds in AB White, 21-25° C.", "setting": "180 days", "result": 1.69, "unit": "µg/mL"}, {"measurement": "Stability of Plant-Derived Cannabinoid Compounds in AB White, 21-25° C.", "setting": "210 days", "result": 1.73, "unit": "µg/mL"}, {"measurement": "Stability of Plant-Derived Cannabinoid Compounds in AB White, 21-25° C.", "setting": "240 days", "result": 1.73, "unit": "µg/mL"}, {"measurement": "Stability of Plant-Derived Cannabinoid Compounds in AB White, 21-25° C.", "setting": "270 days", "result": 1.71, "unit": "µg/mL"}, {"measurement": "Stability of Plant-Derived Cannabinoid Compounds in AB White, 21-25° C.", "setting": "300 days", "result": 1.73, "unit": "µg/mL"}, {"measurement": "Stability of Plant-Derived Cannabinoid Compounds in AB White, 21-25° C.", "setting": "330 days", "result": 1.72, "unit": "µg/mL"}, {"measurement": "Stability of Plant-Derived Cannabinoid Compounds in AB White, 21-25° C.", "setting": "360 days", "result": 1.69, "unit": "µg/mL"}, {"measurement": "Stability of Plant-Derived Cannabinoid Compounds in AB White, 21-25° C.", "setting": "390 days", "result": 1.67, "unit": "µg/mL"}, {"measurement": "Stability of Plant-Derived Cannabinoid Compounds in AB White, 21-25° C.", "setting": "420 days", "result": 1.64, "unit": "µg/mL"}, {"measurement": "Stability of Plant-Derived Cannabinoid Compounds in AB White, 21-25° C.", "setting": "450 days", "result": 1.70, "unit": "µg/mL"}, {"measurement": "Stability of Plant-Derived Cannabinoid Compounds in AB White, 21-25° C.", "setting": "480 days", "result": 1.63, "unit": "µg/mL"}, {"measurement": "Stability of Plant-Derived Cannabinoid Compounds in AB White, 21-25° C.", "setting": "510 days", "result": 1.66, "unit": "µg/mL"}, {"measurement": "Stability of Plant-Derived Cannabinoid Compounds in AB White, 21-25° C.", "setting": "540 days", "result": 1.63, "unit": "µg/mL"}, {"measurement": "Stability of Plant-Derived Cannabinoid Compounds in AB White, 21-25° C.", "setting": "570 days", "result": 1.61, "unit": "µg/mL"}]}]}
